According to PMC3592416 (Nucleic Acids Research, 2012):
pIC50, pKd: −log10 of the molar value.

Experiments:
eEF3/ribosomes = assay: ATP hydrolysis assay; type: biochemical, Saccharomyces cerevisiae; conditions: for amount of ATPase inhibited: total ATP hydrolysis 97 pmol
PoTC [1] = target: T1, PoTC (Saccharomyces cerevisiae, UniProt P02406+P0CX27); conditions: cited from earlier work
PoTC [2] = target: T1, PoTC; conditions: inhibitor alone, without eEF2/GTP; cited from earlier work
PoTC [3] = target: T1, PoTC; assay: Release of mRNA from PoTC; type: biochemical; conditions: for effect of Mg2+ on the inhibitory effect (mRNA release): 100 µM antibiotic, various concentrations of MgCl2
PoTC [4] = target: T1, PoTC; assay: Complete disassembly of PoTC by eEF3/ATP; type: biochemical; conditions: for inhibition of eEF3-dependent disassembly reaction: 1 mM antibiotic
yeast ribosomal subunits = assay: Induction of subunit association; type: biochemical; conditions: 1 mM PAR, 5 s at 30°C after disassembly
translocation = conditions: cited from earlier work
vacant ribosomes = conditions: read-out: Kd with vacant ribosomes; cited from earlier work
[5] = 1 mM antibiotic, 50 µM ATP, 0.5 µM eEF3, 1 min 30°C

T1 sequence (P02406 2-149): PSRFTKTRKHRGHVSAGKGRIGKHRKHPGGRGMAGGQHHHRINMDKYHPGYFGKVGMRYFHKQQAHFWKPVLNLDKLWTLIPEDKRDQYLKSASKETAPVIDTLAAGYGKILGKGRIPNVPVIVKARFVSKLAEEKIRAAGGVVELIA
T1 sequence (P0CX27 2-106): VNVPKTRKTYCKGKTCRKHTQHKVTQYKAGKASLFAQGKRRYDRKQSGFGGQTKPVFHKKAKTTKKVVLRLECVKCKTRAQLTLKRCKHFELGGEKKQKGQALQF
T1 sequence (P16521 2-1044 partner): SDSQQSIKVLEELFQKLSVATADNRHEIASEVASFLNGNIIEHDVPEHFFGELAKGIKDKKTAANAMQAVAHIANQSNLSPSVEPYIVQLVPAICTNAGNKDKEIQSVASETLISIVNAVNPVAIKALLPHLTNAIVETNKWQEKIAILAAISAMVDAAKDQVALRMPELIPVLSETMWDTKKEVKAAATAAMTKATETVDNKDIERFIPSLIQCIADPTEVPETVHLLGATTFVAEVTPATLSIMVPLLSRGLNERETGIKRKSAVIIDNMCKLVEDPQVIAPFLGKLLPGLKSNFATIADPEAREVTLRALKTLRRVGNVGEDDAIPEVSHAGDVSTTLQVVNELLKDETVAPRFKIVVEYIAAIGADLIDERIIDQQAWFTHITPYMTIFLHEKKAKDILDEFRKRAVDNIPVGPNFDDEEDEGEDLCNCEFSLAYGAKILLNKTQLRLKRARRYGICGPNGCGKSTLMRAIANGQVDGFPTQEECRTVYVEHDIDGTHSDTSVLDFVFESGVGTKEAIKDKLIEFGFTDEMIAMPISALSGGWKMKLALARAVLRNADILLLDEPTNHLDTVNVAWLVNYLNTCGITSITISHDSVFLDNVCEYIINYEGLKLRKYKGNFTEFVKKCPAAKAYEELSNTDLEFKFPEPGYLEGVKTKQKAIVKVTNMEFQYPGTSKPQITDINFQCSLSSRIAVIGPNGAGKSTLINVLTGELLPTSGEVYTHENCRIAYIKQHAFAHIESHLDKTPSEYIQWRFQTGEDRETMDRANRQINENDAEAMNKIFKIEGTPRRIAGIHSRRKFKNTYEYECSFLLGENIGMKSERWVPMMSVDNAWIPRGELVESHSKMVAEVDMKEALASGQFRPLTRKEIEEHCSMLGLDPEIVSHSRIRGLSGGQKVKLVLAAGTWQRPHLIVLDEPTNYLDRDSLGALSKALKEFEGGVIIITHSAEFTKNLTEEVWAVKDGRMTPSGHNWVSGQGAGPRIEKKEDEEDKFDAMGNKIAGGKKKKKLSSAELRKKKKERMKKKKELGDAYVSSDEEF

| SMILES | inhibition of eEF3-dependent release of mRNA from PoTC (PoTC [2]) | effect of Mg2+ on the inhibitory effect (mRNA release) (PoTC [3]) | inhibition of ATP hydrolysis by eEF3/ribosomes (eEF3/ribosomes; [5]) | amount of ATPase inhibited (eEF3/ribosomes; 1 mM antibiotic) | inhibition of eEF3-dependent disassembly reaction (PoTC [4]) | also measured |
| --- | --- | --- | --- | --- | --- | --- |
| [O]=[V]([O-])([O-])[O-] [vanadate] |  |  |  |  |  | amount of ATP hydrolysis inhibited (eEF3/ribosomes; vanadate positive control): 52 pmol; inhibition of ATP hydrolysis by eEF3/ribosomes (eEF3/ribosomes; vanadate positive control): about 50%; effect on the disassembly of PoTC (PoTC [1]): without inhibiting |
| CO[C@H]1[C@@H](O)[C@H](O)[C@H](OC[C@@]23C[C@@H]4[C@H](C)CC[C@H]4[C@@]4(C=O)CC2C=C(C(C)C)[C@@]34C(=O)O)O[C@@H]1C [SOR, sordarin] | only slightly inhibit |  |  |  |  |  |
| NC[C@@H]1O[C@H](O[C@H]2[C@@H](O)[C@H](O[C@@H]3[C@@H](O)[C@H](N)C[C@H](N)[C@H]3O[C@H]3O[C@H](CO)[C@@H](O)[C@H](O)[C@H]3N)O[C@@H]2CO)[C@H](N)[C@@H](O)[C@@H]1O [PAR, paromomycin] |  | not significantly influenced | ~20% | 22 pmol | almost complete maximum inhibition | association of ribosomal subunits (yeast ribosomal subunits): re-associated yeast ribosomal subunits |
| CC(=O)O[C@H]1C[C@@]2(C)[C@@H](C[C@@H](O)[C@H]3[C@@]4(C)CC[C@@H](O)[C@@H](C)[C@@H]4CC[C@@]32C)/C1=C(\CCC=C(C)C)C(=O)O [FA, fusidic acid] | only slightly inhibit |  |  |  |  |  |
| C/C(=C\[C@H](C)C(=O)C[C@H](O)CC1CC(=O)NC(=O)C1)[C@@H]1OC(=O)/C=C/CC/C=C/C=C\[C@@H]1C [LTM, lactimidomycin] |  |  |  |  |  | concentration at which maximum inhibition was obtained (PoTC [4]; three disassembly reactions): 100 µM; concentration which inhibits translocation almost completely (translocation): 200 µM |
| C[C@@H]1C[C@@H]([C@H](O)CC2CC(=O)NC(=O)C2)C(=O)[C@@H](C)C1 [CHX, cycloheximide] |  | remarkable stimulatory effect | ~20% | 22 pmol | almost complete maximum inhibition | mode of inhibition with respect to ATP (PoTC [3]; Lineweaver-Burk, mRNA release): non-competitive inhibitor; mode of inhibition with respect to eEF3 (PoTC [3]; Lineweaver-Burk, mRNA release): non-competitive inhibitor; pIC50 (translocation; read-out: IC50 for the inhibition of translocation): 5.92; pKd (vacant ribosomes): 4.82 |
